Experimental data taken from BindingDB's records for doi:10.1021/jm201482p (University of Nebraska Medical Center, 2012).

Molecular target: Cholinesterase (Homo sapiens, UniProt P06276)
Experiment: Inhibition of human BChE after 30 mins by microplate reader method

Chain of Cholinesterase (P06276 whole entry): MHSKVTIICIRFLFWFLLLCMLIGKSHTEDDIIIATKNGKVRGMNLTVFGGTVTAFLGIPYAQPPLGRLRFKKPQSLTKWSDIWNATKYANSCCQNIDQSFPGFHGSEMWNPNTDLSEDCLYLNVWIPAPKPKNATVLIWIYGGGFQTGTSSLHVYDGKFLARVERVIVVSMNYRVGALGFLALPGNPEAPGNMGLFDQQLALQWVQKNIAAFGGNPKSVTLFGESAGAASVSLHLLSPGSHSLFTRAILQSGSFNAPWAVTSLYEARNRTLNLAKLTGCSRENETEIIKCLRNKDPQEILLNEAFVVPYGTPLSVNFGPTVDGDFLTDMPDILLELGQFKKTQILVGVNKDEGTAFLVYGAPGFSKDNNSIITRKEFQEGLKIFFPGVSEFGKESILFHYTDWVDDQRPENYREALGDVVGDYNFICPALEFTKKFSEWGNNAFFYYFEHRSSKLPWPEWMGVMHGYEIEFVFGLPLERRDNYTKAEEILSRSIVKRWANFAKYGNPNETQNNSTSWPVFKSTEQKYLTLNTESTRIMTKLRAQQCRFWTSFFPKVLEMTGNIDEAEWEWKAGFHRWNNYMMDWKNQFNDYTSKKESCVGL

CC(C)(C)c1cc(C(C)(C)C)c2c(c1F)COP(=O)(OC[C@H]1O[C@@H](n3cc(I)c(=O)[nH]c3=O)C[C@@H]1O)O2 (stereo partly specified)
IC50: > 60 mM
